Test results: patent publication US12012404B2, “Pyrimidoheterocyclic compounds and application thereof” (D3 BIO (WUXI) CO., LTD., priority 2020, dated 2024)
Structures can show the parent of a compound that is named as a salt.

Key:
[1] = system: KRAS^G12C-mutated MIA-PA-CA-2 cells; experiment: Inhibition of proliferation of KRAS^G12C-mutated MIA-PA-CA-2 cells (CellTiter-Glo, 72 h); type: cell-based, human
Procedure: Compounds were assayed for IC50 of inhibition of proliferation of KRAS^G12C-mutated MIA-PA-CA-2 cells.
The main reagent used in this assay included CellTiter-Glo (Promega, Cat. No. G7573).
The main instrument used in this assay was PerkinElmer EnVision multi-function microplate reader.
1.4 Method of the Assay • 1) Adherent cells were digested with trypsin to form a cell suspension, and the cell suspension was counted for later use. • 2) An appropriate amount of cells was added into a centrifuge tube, and a cell culture medium was added to make up the required volume; then the cells were plated to a 96-well plate at a final density of 2000 cells/well, 100 μL of culture medium. • 3) After incubating for 24 hr, the compound was formulated to 10 mM with DMSO, and serially diluted 3-fold with DPBS (Dulbecco's Phosphate Buffered Saline) to 9 points; 10 μL was added to each well in duplicate. 10 μL of DPBS per well was added to the assay control wells (Con). • 4) On the same day, 50 μL of CellTiter Glo was added to another cell culture plate without compounds, and the fluorescence value was read by EnVision. […] The fluorescence value was read by EnVision. • 6) Data analysis: The inhibition rate of cells in each well was calculated according to the following equation: […]

[2] = system: KRAS^G12C-mutated H358 cells; experiment: H358 cell assay: inhibition of proliferation (CellTiter-Glo, 5 days); type: cell-based; settings: NCI-H358 cells, 5 days incubation
Procedure: Compounds were assayed for IC50 of inhibition of proliferation of KRAS^G12C-mutated H358 cells.
The main instrument used in this assay was a Nivo multi-label analyzer (PerkinElmer).
2.4 Method of the Assay: • 1) NCI-H358 cells were inoculated in a white 96-well plate, and each well contained 80 μL of cell suspension and 4000 NCI-H358 cells. […] The assay was carried out in duplicate. 78 μL of medium was added to the intermediate plate, and then 2 μL of the serially diluted compound was transferred to each well of the intermediate plate according to the corresponding position. After mixing well, 20 μL per well was transferred to the cell plate. […] The cell plate was incubated in a carbon dioxide incubator for 5 days. Another cell plate was prepared, and the signal value of the cell plate was read on the day of compound addition as the maximum value (Max value in the equation below) to participate in data analysis. 25 μL of cell viability chemiluminescence detection reagent was added to each well of the cell plate, and the plate was incubated at room temperature for 10 minutes to stabilize the luminescence signal. A multi-label analyzer was used for reading the plate. • 3) […]

Compound	IC50 ([1]; 72 h incubation)	IC50 [2]	IC50 ([1]; Homo sapiens, MIA PaCa-2, 72 h incubation)	IC50 ([2]; Homo sapiens, 120 h)
C=CC(=O)N1CCN(c2nc(OCC3CC(F)CN3C)nc3c2COC(c2c(F)c(N)cc(C)c2C(F)(F)F)C3)C(C)C1 (single isomer, unassigned) [Compound 9B]	6.98 nM	5.5 nM		
C=CC(=O)N1C[C@H](C)N(c2nc(OC[C@@H]3CCCN3C)nc3c2COC(c2c(F)c(N)cc(C)c2C(F)(F)F)C3)C[C@H]1C (some centres unmarked) [Compound 11]		6.7 nM		
C=CC(=O)N1CCN(c2nc(OCC34CCCN3CCC4)nc3c2COC(c2c(F)c(N)cc(C)c2C(F)(F)F)C3)C(C)C1 (centres unmarked) [Compound 12]	1.3 nM	2.5 nM		
C=C(F)C(=O)N1CCN(c2nc(OCC34CCCN3CCC4)nc3c2COC(c2c(F)c(N)cc(C)c2C(F)(F)F)C3)C[C@@H]1CC#N (some centres unmarked) [Compound 16]			2.22 nM	1.7 nM
C=CC(=O)N1CCN(c2nc(OCC3CCCN3C)nc3c2CNC(c2c(Cl)c(C)cc4[nH]ncc24)C3)CC1CC#N (single isomer, unassigned) [4B hydrochloride]		27 nM		
C=C(F)C(=O)N1CCN(c2nc(OCC3CCCN3C)nc3c2COC(c2c(F)c(N)cc(C)c2C(F)(F)F)C3)CC1CC#N (single isomer, unassigned) [8B hydrochloride]	2.7 nM	< 4.6 nM		
C=CC(=O)N1CCN(c2nc(OC[C@@H]3CCCN3C)nc3c2COC(c2cccc4cccc(Cl)c24)C3)C[C@@H]1CC#N (some centres unmarked) [Compound 2]		19 nM		
C=CC(=O)N1CCN(c2nc(OCC3CCCN3C)nc3c2CN(C)C(c2c(Cl)c(C)cc4[nH]ncc24)C3)CC1CC#N (single isomer, unassigned) [Compound 6A]		< 4.6 nM		
C=CC(=O)N1CCN(c2nc(OC[C@@H]3CCCN3C)nc3c2CN(C)C(c2cccc4ccccc24)C3)C[C@@H]1CC#N (some centres unmarked) [Compound 1]	5.21 nM	68.2 nM		
C=CC(=O)N1CCN(c2nc(OC[C@@H]3CCCN3C)nc3c2COC(c2c(F)c(N)cc(C)c2C(F)(F)F)C3)C[C@@H]1C (some centres unmarked) [Compound 10]				70 nM
C=CC(=O)N1CCN(c2nc(OC[C@@H]3CCCN3C)nc3c2COC(c2c(F)c(N)cc(C)c2C(F)(F)F)C3)[C@H](C)C1 (some centres unmarked) [Compound 13]				32.6 nM
C=CC(=O)N1CCN(c2nc(OCC3CCCN3C)nc3c2COC(c2c(F)c(N)cc(C)c2C(F)(F)F)C3)C(C)C1 (single isomer, unassigned) [Compound 18B]	3.29 nM	4.7 nM		
C=CC(=O)N1CCN(c2nc(OCC3CCCN3C)nc3c2COC(c2c(Cl)c(C)cc4[nH]ncc24)C3)CC1CC#N (single isomer, unassigned) [Compound 5B]		12.9 nM		
C=CC(=O)N1CCN(c2nc(OC[C@@H]3CCCN3C)nc3c2COC(c2c(F)c(N)cc(C)c2C(F)(F)F)C3)C[C@H]1C (some centres unmarked) [Compound 15]				9.2 nM
